Reference: patent publication US7326420B2, “Benzoyl peroxide compositions having increased potency” (priority 2001, dated 2008)
One block for each compound: values may come before it.

Assays:
[1] = tested on: Pseudomonas aeruginosa isolates; assay: Checkerboard microdilution susceptibility test (MIC alone and in combination, FICI); assay type: cell-based
Protocol: (§1) The object of this preliminary study was to discover the in vitro effect of the addition of benzoyl peroxide to terbinafine when tested against Candida albicans, Pseudomonas aeruginosa, and Staphylococcus aureus isolates, using a checkerboard microdilution method. […]
(§2) In this study, ten serial dilutions of terbinafine (starting at 32 μg/ml) and benzoyl peroxide (starting at 3%) were tested alone and in combination against ten Candida albicans isolates from the culture collection at the Center for Medical Mycology. Both susceptible and fluconazole-resistant strains were included. Two strains each of Pseudomonas aeruginosa and Staphylococcus aureus were also tested.
(§3) The individual minimum inhibitory concentrations (MICs) of terbinafine and BP against each isolate were determined according to the NCCLS M27-A2 and M07-A6 standards for yeasts and aerobic bacteria, respectively.
(§4) The effect of combining benzoyl peroxide with terbinafine was evaluated using a checkerboard assay. This test method is a modification of the microdilution antifungal susceptibility test (NCCLS M27A2) wherein two antifungal agents are combined in varying concentrations to determine whether they have a synergistic, additive, or antagonistic effect on the respective minimum inhibitory concentration (MIC) values.
(§5) Two antifungal agents were serially diluted in RPMI to produce ten concentrations of the drugs under investigation. The range was chosen to include achievable serum levels of the drugs. The two drugs were then combined into wells of a microtiter plate so that the concentration of one drug increases as that of the other decreased. Two rows consisting of serial dilutions of each individual drug were also included. Comparison of the MICs of the individual antifungal agents to the MIC of the combined agents was indicative of their relative efficacy.
(§6) [formula] The combination of two drugs was reported as synergistic (<0.5), additive (0.5<FICI <1.0), indifferent (1.0<FICI <4.0), or antagonistic (.4.0).

[2] = tested on: Staphylococcus aureus isolates; assay: as above; assay type: cell-based
Protocol: as §1, §2, §3, §4, §5, §6

[3] = tested on: Candida albicans isolates; assay: as above; assay type: cell-based
Protocol: as §1, §2, §3, §4, §5, §6

[4] = Polymerization of tetraethylene glycol dimethacrylate (gel formation) as a test of BP radical activity; assay type: physicochemical; settings: agent in combination with BP, 3% w/w in tetraethylene glycol dimethacrylate, oven 90 to 100 degrees Celsius
Excerpt: Methods: Polymerization of tetra ethylene glycol dimethacrylate was used as a test of BP radical activity. Solutions of BP, antibiotics, and BP and antibiotics were made at 3% w/w in tetraethylene glycol dimethacrylate. All of the antibiotics except erythromycin (ERY) were obtained from prescription pills, which were crushed in a crucible. The portion of the pills that disolved in tetraethylene glycol dimethacrylate were used in the experiment. ERY was obtained in powdered form from Benzamycin® acne treatments. Aliquots of ten drops of these solutions were placed in an eight well plastic plate. The samples were heated in an oven that maintained a temperature range between 90 to 100 degrees Celsius. After various amounts of time the samples were taken out of the oven and tested for gel formation. Polymerization of tetraethylene glycol dimethacrylate was detected visually by swirling a spatula in the solutions. Gelling constituted an indicator of BP radical activity.

[5] = Ps. aeruginosa (n = 2), individual compound
[6] = S. aureus (n = 2), individual compound
[7] = C. albicans (n = 10), individual compound

number of isolates with MIC of Benzoyl Peroxide 0.09% [1, 5]: 2
number of isolates with MIC of Benzoyl Peroxide 1.5% [2, 6]: 2
number of isolates with MIC of Benzoyl Peroxide 0.38% [3, 7]: 6
number of isolates with MIC of Benzoyl Peroxide 3.0% [3, 7]: 4
SMILES: O=C(OOC(=O)c1ccccc1)c1ccccc1 [Benzoyl Peroxide, Benzoyl peroxide]

effect of the agent on BP radical activity (speed of polymerization of tetraethylene glycol dimethacrylate) [4]: polymerize the fastest
SMILES: CC[C@H]1OC(=O)[C@H](C)[C@@H](O[C@H]2C[C@@](C)(OC)[C@@H](O)[C@H](C)O2)[C@H](C)[C@@H](O[C@@H]2O[C@H](C)C[C@H](N(C)C)[C@H]2O)[C@](C)(O)C[C@@H](C)C(=O)[C@H](C)[C@@H](O)[C@]1(C)O [ERY, erythromycin]

number of isolates with MIC of Terbinafine >32 μg/ml [1, 5]: 2
MIC ([1]; Pseudomonas aeruginosa, read-out: MIC of terbinafine alone): > 32 µg/mL
number of isolates with MIC of Terbinafine >32 μg/ml [2, 6]: 2
MIC ([2]; Staphylococcus aureus, read-out: MIC of terbinafine alone): > 32 µg/mL
number of isolates with MIC of Terbinafine 8 μg/ml [3, 7]: 1
number of isolates with MIC of Terbinafine >32 μg/ml [3, 7]: 9
MIC ([3]; Candida albicans, read-out: MIC of terbinafine alone): > 32 µg/mL
SMILES: CN(C/C=C/C#CC(C)(C)C)Cc1cccc2ccccc12 [Terbinafine, terbinafine]

effect of the agent on BP radical activity (speed of polymerization of tetraethylene glycol dimethacrylate) [4]: did not augment BP radical activity
SMILES: N[C@@H]1[C@H]2CN(c3nc4c(cc3F)c(=O)c(C(=O)O)cn4-c3ccc(F)cc3F)C[C@@H]12 [trovofloxacin]
